According to US20230085307A1, “PYRIDAZINONE COMPOUND AND HERBICIDE” (NISSAN CHEMICAL CORPORATION, priority 2019, published 2023):

Key:
late watergrass = experiment: Test Example 1: herbicidal activity, application before weed generation under submerged conditions (Table 16, symbol A); type: in vivo, late watergrass (Echinochloa oryzicola); conditions: amount of applied herbicide 320 g/ha
How it was run: (§1)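 Alluvial soil was flooded to 4 cm depth, weed seeds were sown mixed and 2.5-leaf rice seedlings were transplanted. On sowing day, the compound's emulsion, diluted in water to a set dose, was applied to the water surface. Plants grew at 25–30 °C and were scored 0–5 after three weeks.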

Japanese bulrush = experiment: Test Example 1: herbicidal activity, application before weed generation under submerged conditions (Table 16, symbol B); type: in vivo, Japanese bulrush (Schoenoplectus juncoides); conditions: amount of applied herbicide 320 g/ha
How it was run: as §1

oval-leafed pondweed = experiment: Test Example 1: herbicidal activity, application before weed generation under submerged conditions (Table 16, symbol C); type: in vivo, oval-leafed pondweed (Monochoria vaginalis); conditions: amount of applied herbicide 320 g/ha
How it was run: as §1

barnyard grass [1] = experiment: Test Example 3: herbicidal effect by foliage application, Wagner pot (Table 18, symbol H); type: in vivo, barnyard grass (Echinochloa crus-galli); conditions: amount of applied herbicide 320 g/ha
How it was run: (§2)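 Plants were sown in alluvial soil held under 0.1–0.5 cm standing water and grown 14 days in a greenhouse at 25–30 °C. An emulsifiable formulation, water-diluted to the set dose, was then sprayed onto the foliage, and effects were scored three weeks later using previously defined criteria.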

Chinese sprangletop = experiment: Test Example 3: herbicidal effect by foliage application, Wagner pot (Table 18, symbol D); type: in vivo, chinese sprangletop (Leptochloa chinensis); conditions: amount of applied herbicide 320 g/ha
How it was run: as §2

rice flat sedge = experiment: Test Example 3: herbicidal effect by foliage application, Wagner pot (Table 18, symbol E); type: in vivo, rice flat sedge (Cyperus iria); conditions: amount of applied herbicide 320 g/ha
How it was run: as §2

southern crabgrass [2] = experiment: Test Example 4: herbicidal effect by soil treatment (Table 19, symbol F); type: in vivo, southern crabgrass (Digitaria ciliaris); conditions: amount of applied herbicide 320 g/ha
How it was run: (§3)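 Scoring uses the grading scale of an earlier test, three weeks post-application. Treatment consists of spraying a diluted emulsion formulation across the surface of sterilized diluvial soil in which seeds are buried near 1.5 cm deep; boxes are kept in a greenhouse between 25° C. and 30° C.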

green foxtail [3] = experiment: Test Example 4: herbicidal effect by soil treatment (Table 19, symbol G); type: in vivo, green foxtail (Setaria viridis); conditions: amount of applied herbicide 320 g/ha
How it was run: as §3

barnyard grass [4] = experiment: Test Example 4: herbicidal effect by soil treatment (Table 19, symbol H); type: in vivo, barnyard grass (Echinochloa crus-galli); conditions: amount of applied herbicide 320 g/ha
How it was run: as §3

wild oat [5] = experiment: Test Example 4: herbicidal effect by soil treatment (Table 19, symbol I); type: in vivo, wild oat (Avena fatua); conditions: amount of applied herbicide 320 g/ha
How it was run: as §3

blackgrass [6] = experiment: Test Example 4: herbicidal effect by soil treatment (Table 19, symbol J); type: in vivo, blackgrass (Alopecurus myosuroides); conditions: amount of applied herbicide 320 g/ha
How it was run: as §3

Italian ryegrass [7] = experiment: Test Example 4: herbicidal effect by soil treatment (Table 19, symbol K); type: in vivo, Italian ryegrass (Lolium multiflorum); conditions: amount of applied herbicide 320 g/ha
How it was run: as §3

windgrass [8] = experiment: Test Example 4: herbicidal effect by soil treatment (Table 19, symbol L); type: in vivo, windgrass (Apera spica-venti); conditions: amount of applied herbicide 320 g/ha
How it was run: as §3

velvetleaf [9] = experiment: Test Example 4: herbicidal effect by soil treatment (Table 19, symbol M); type: in vivo, velvetleaf (Abutilon theophrasti); conditions: amount of applied herbicide 320 g/ha
How it was run: as §3

redroot pigweed [10] = experiment: Test Example 4: herbicidal effect by soil treatment (Table 19, symbol N); type: in vivo, redroot pigweed (Amaranthus retroflexus); conditions: amount of applied herbicide 320 g/ha
How it was run: as §3

lambsquarters [11] = experiment: Test Example 4: herbicidal effect by soil treatment (Table 19, symbol O); type: in vivo, lambsquarters (Chenopodium album); conditions: amount of applied herbicide 320 g/ha
How it was run: as §3

chickweed [12] = experiment: Test Example 4: herbicidal effect by soil treatment (Table 19, symbol P); type: in vivo, common chickweed (Stellaria media); conditions: amount of applied herbicide 320 g/ha
How it was run: as §3

southern crabgrass [13] = experiment: Test Example 5: herbicidal effect by foliage application, plastic box (Table 20, symbol F); type: in vivo, southern crabgrass (Digitaria ciliaris); conditions: foliage application, 320 g/ha, three weeks after application
How it was run: (§4)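 Post-emergence foliar test in sterilized diluvial soil. Compound applied as water-diluted emulsion at a predetermined rate to 14-day-old plants; evaluation at three weeks.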

green foxtail [14] = experiment: Test Example 5: herbicidal effect by foliage application, plastic box (Table 20, symbol G); type: in vivo, green foxtail (Setaria viridis); conditions: foliage application, 320 g/ha, three weeks after application
How it was run: as §4

barnyard grass [15] = experiment: Test Example 5: herbicidal effect by foliage application, plastic box (Table 20, symbol H); type: in vivo, barnyard grass (Echinochloa crus-galli); conditions: foliage application, 320 g/ha, three weeks after application
How it was run: as §4

wild oat [16] = experiment: Test Example 5: herbicidal effect by foliage application, plastic box (Table 20, symbol I); type: in vivo, wild oat (Avena fatua); conditions: foliage application, 320 g/ha, three weeks after application
How it was run: as §4

blackgrass [17] = experiment: Test Example 5: herbicidal effect by foliage application, plastic box (Table 20, symbol J); type: in vivo, blackgrass (Alopecurus myosuroides); conditions: foliage application, 320 g/ha, three weeks after application
How it was run: as §4

Italian ryegrass [18] = experiment: Test Example 5: herbicidal effect by foliage application, plastic box (Table 20, symbol K); type: in vivo, Italian ryegrass (Lolium multiflorum); conditions: foliage application, 320 g/ha, three weeks after application
How it was run: as §4

windgrass [19] = experiment: Test Example 5: herbicidal effect by foliage application, plastic box (Table 20, symbol L); type: in vivo, windgrass (Apera spica-venti); conditions: foliage application, 320 g/ha, three weeks after application
How it was run: as §4

velvetleaf [20] = experiment: Test Example 5: herbicidal effect by foliage application, plastic box (Table 20, symbol M); type: in vivo, velvetleaf (Abutilon theophrasti); conditions: foliage application, 320 g/ha, three weeks after application
How it was run: as §4

redroot pigweed [21] = experiment: Test Example 5: herbicidal effect by foliage application, plastic box (Table 20, symbol N); type: in vivo, redroot pigweed (Amaranthus retroflexus); conditions: foliage application, 320 g/ha, three weeks after application
How it was run: as §4

lambsquarters [22] = experiment: Test Example 5: herbicidal effect by foliage application, plastic box (Table 20, symbol O); type: in vivo, lambsquarters (Chenopodium album); conditions: foliage application, 320 g/ha, three weeks after application
How it was run: as §4

chickweed [23] = experiment: Test Example 5: herbicidal effect by foliage application, plastic box (Table 20, symbol P); type: in vivo, common chickweed (Stellaria media); conditions: foliage application, 320 g/ha, three weeks after application
How it was run: as §4

false cleavers = experiment: Test Example 5: herbicidal effect by foliage application, plastic box (Table 20, symbol Q); type: in vivo, false cleavers (Galium spurium); conditions: foliage application, 320 g/ha, three weeks after application
How it was run: as §4

persian speedwell [24] = experiment: Test Example 5: herbicidal effect by foliage application, plastic box (Table 20, symbol R); type: in vivo, Persian speedwell (Veronica persica); conditions: foliage application, 320 g/ha, three weeks after application
How it was run: as §4

persian speedwell [25] = experiment: Test Example 4: herbicidal effect by soil treatment (Table 19, symbol R); type: in vivo, Persian speedwell (Veronica persica); conditions: amount of applied herbicide 320 g/ha
How it was run: as §3

SMILES: Cc1nn(C)c(=O)c(-c2c(-c3ccc(OC(C)C)cc3)sc3cc(F)ccc23)c1O [3-019]
- Herbicidal effect, A: late watergrass (late watergrass): 3 (Herbicidal rate of 40% or more and less than 70%)
- Herbicidal effect, B: Japanese bulrush (Japanese bulrush): 3 (Herbicidal rate of 40% or more and less than 70%)
- Herbicidal effect, C: oval-leafed pondweed (oval-leafed pondweed): 3 (Herbicidal rate of 40% or more and less than 70%)
- herbicidal effect on H: barnyard grass (barnyard grass [1]): 3 (Herbicidal rate of 40% or more and less than 70%)
- herbicidal effect on D: Chinese sprangletop (Chinese sprangletop): 0 (Herbicidal rate of 5% or less (almost no effect))
- herbicidal effect on E: rice flat sedge (rice flat sedge): 3 (Herbicidal rate of 40% or more and less than 70%)
- herbicidal effect, F: southern crabgrass (southern crabgrass [2]): 0 (Herbicidal rate of 5% or less (almost no effect))
- herbicidal effect, G: green foxtail (green foxtail [3]): 2 (Herbicidal rate of 20% or more and less than 40%)
- herbicidal effect, H: barnyard grass (barnyard grass [4]): 0 (Herbicidal rate of 5% or less (almost no effect))
- herbicidal effect, I: wild oat (wild oat [5]): 0 (Herbicidal rate of 5% or less (almost no effect))
- herbicidal effect, J: blackgrass (blackgrass [6]): 0 (Herbicidal rate of 5% or less (almost no effect))
- herbicidal effect, K: Italian ryegrass (Italian ryegrass [7]): 0 (Herbicidal rate of 5% or less (almost no effect))
- herbicidal effect, L: windgrass (windgrass [8]): 0 (Herbicidal rate of 5% or less (almost no effect))
- herbicidal effect, M: velvetleaf (velvetleaf [9]): 0 (Herbicidal rate of 5% or less (almost no effect))
- herbicidal effect, N: redroot pigweed (redroot pigweed [10]): 3 (Herbicidal rate of 40% or more and less than 70%)
- herbicidal effect, O: lambsquarters (lambsquarters [11]): 3 (Herbicidal rate of 40% or more and less than 70%)
- herbicidal effect, P: chickweed (chickweed [12]): 0 (Herbicidal rate of 5% or less (almost no effect))
- F: southern crabgrass, herbicidal effect grade (southern crabgrass [13]): 0 (Herbicidal rate of 5% or less (almost no effect))
- G: green foxtail, herbicidal effect grade (green foxtail [14]): 4 (Herbicidal rate of 70% or more and less than 90%)
- H: barnyard grass, herbicidal effect grade (barnyard grass [15]): 3 (Herbicidal rate of 40% or more and less than 70%)
- I: wild oat, herbicidal effect grade (wild oat [16]): 0 (Herbicidal rate of 5% or less (almost no effect))
- J: blackgrass, herbicidal effect grade (blackgrass [17]): 3 (Herbicidal rate of 40% or more and less than 70%)
- K: Italian ryegrass, herbicidal effect grade (Italian ryegrass [18]): 3 (Herbicidal rate of 40% or more and less than 70%)
- L: windgrass, herbicidal effect grade (windgrass [19]): 3 (Herbicidal rate of 40% or more and less than 70%)
- M: velvetleaf, herbicidal effect grade (velvetleaf [20]): 3 (Herbicidal rate of 40% or more and less than 70%)
- N: redroot pigweed, herbicidal effect grade (redroot pigweed [21]): 5 (Herbicidal rate of 90% or more (almost completely withered))
- O: lambsquarters, herbicidal effect grade (lambsquarters [22]): 0 (Herbicidal rate of 5% or less (almost no effect))
- P: chickweed, herbicidal effect grade (chickweed [23]): 5 (Herbicidal rate of 90% or more (almost completely withered))
- Q: false cleavers, herbicidal effect grade (false cleavers): 4 (Herbicidal rate of 70% or more and less than 90%)
- R: persian speedwell, herbicidal effect grade (persian speedwell [24]): 5 (Herbicidal rate of 90% or more (almost completely withered))

SMILES: CCOc1cc(F)ccc1-c1oc2ccc(C)cc2c1-c1c(O)c(C)nn(C)c1=O [9-011]
- Herbicidal effect, A: late watergrass (late watergrass): 3 (Herbicidal rate of 40% or more and less than 70%)
- Herbicidal effect, B: Japanese bulrush (Japanese bulrush): 2 (Herbicidal rate of 20% or more and less than 40%)
- Herbicidal effect, C: oval-leafed pondweed (oval-leafed pondweed): 1 (Herbicidal rate of 5% or more and less than 20%)
- Herbicidal effect on H (barnyard grass), foliage application (barnyard grass [1]): 5 (Herbicidal rate of 90% or more (almost completely withered))
- Herbicidal effect on D (Chinese sprangletop), foliage application (Chinese sprangletop): 0 (Herbicidal rate of 5% or less (almost no effect))
- Herbicidal effect on E (rice flat sedge), foliage application (rice flat sedge): 4 (Herbicidal rate of 70% or more and less than 90%)
- F: southern crabgrass, herbicidal effect grade (southern crabgrass [2]): 2 (Herbicidal rate of 20% or more and less than 40%)
- G: green foxtail, herbicidal effect grade (green foxtail [3]): 0 (Herbicidal rate of 5% or less (almost no effect))
- H: barnyard grass, herbicidal effect grade (barnyard grass [4]): 0 (Herbicidal rate of 5% or less (almost no effect))
- I: wild oat, herbicidal effect grade (wild oat [5]): 0 (Herbicidal rate of 5% or less (almost no effect))
- J: blackgrass, herbicidal effect grade (blackgrass [6]): 2 (Herbicidal rate of 20% or more and less than 40%)
- K: Italian ryegrass, herbicidal effect grade (Italian ryegrass [7]): 0 (Herbicidal rate of 5% or less (almost no effect))
- L: windgrass, herbicidal effect grade (windgrass [8]): 3 (Herbicidal rate of 40% or more and less than 70%)
- M: velvetleaf, herbicidal effect grade (velvetleaf [9]): 0 (Herbicidal rate of 5% or less (almost no effect))
- N: redroot pigweed, herbicidal effect grade (redroot pigweed [10]): 3 (Herbicidal rate of 40% or more and less than 70%)
- O: lambsquarters, herbicidal effect grade (lambsquarters [11]): 4 (Herbicidal rate of 70% or more and less than 90%)
- P: chickweed, herbicidal effect grade (chickweed [12]): 1 (Herbicidal rate of 5% or more and less than 20%)
- R: persian speedwell, herbicidal effect grade (persian speedwell [25]): 3 (Herbicidal rate of 40% or more and less than 70%)
- herbicidal effect on southern crabgrass (F) (southern crabgrass [13]): 2 (Herbicidal rate of 20% or more and less than 40%)
- herbicidal effect on green foxtail (G) (green foxtail [14]): 2 (Herbicidal rate of 20% or more and less than 40%)
- herbicidal effect on barnyard grass (H) (barnyard grass [15]): 4 (Herbicidal rate of 70% or more and less than 90%)
- herbicidal effect on wild oat (I) (wild oat [16]): 3 (Herbicidal rate of 40% or more and less than 70%)
- herbicidal effect on blackgrass (J) (blackgrass [17]): 4 (Herbicidal rate of 70% or more and less than 90%)
- herbicidal effect on Italian ryegrass (K) (Italian ryegrass [18]): 0 (Herbicidal rate of 5% or less (almost no effect))
- herbicidal effect on windgrass (L) (windgrass [19]): 1 (Herbicidal rate of 5% or more and less than 20%)
- herbicidal effect on velvetleaf (M) (velvetleaf [20]): 3 (Herbicidal rate of 40% or more and less than 70%)
- herbicidal effect on lambsquarters (O) (lambsquarters [22]): 4 (Herbicidal rate of 70% or more and less than 90%)
- herbicidal effect on false cleavers (Q) (false cleavers): 4 (Herbicidal rate of 70% or more and less than 90%)
- herbicidal effect on persian speedwell (R) (persian speedwell [24]): 4 (Herbicidal rate of 70% or more and less than 90%)
